Results from US11932908B2, “Compositions and methods for diagnosis and treatment of epilepsy” (THE REGENTS OF THE UNIVERSITY OF CALIFORNIA, priority 2004, dated 2024).
Substitutions are numbered along the chain they refer to. Names and notes keep the numbering of the source. “Also recorded” adds a separate entry of the source. Read-outs that look alike come from different tables or passages of the source.

Tests used:
JME seizures = details: JME patients, cited from earlier work
[1] = cited from earlier work
T type VDCC = details: cited from earlier work
L-type HVDCC = details: cited from earlier work
N type HVDCC = N type HVDCC (Homo sapiens, UniProt Q00975); details: cited from earlier work
P type HVDCC = P type HVDCC (Homo sapiens, UniProt O00555); details: cited from earlier work
[2] = tested on: high voltage activated calcium currents (HVDCC); details: cited from earlier work
[3] = tested on: EFHC1-transfected hippocampal primary culture neurons; assay: Cell death analyses with VDCCs inhibitors; assay type: cell-based, mouse
Method: Cell death analyses with VDCCs inhibitors. Dissociated hippocampal primary culture neurons from embryonic day 16 mice were seeded in 24 well plates containing poly-L-lysine coated coverslips (5×10^4 cells/well). Neurons were transfected with pEGFP-EFHC1 on day 6 in vitro with antagonists and fixed 48 hours post transfection. Calcium channel inhibitors, ω-Agatoxin IVA (PEPTIDE […], INC.) for P-type (Cav2.1), ω-Conotoxin GVIA (PEPTIDE […], INC.) for N-type (Cav2.2), SNX-482 (PEPTIDE […], INC.) for R-type (Cav2.3), flunarizine (Nacalai Tesque) for T-type and nifedipine (SIGMA) for L-type VDCC, were added directly to neuronal culture 3 hrs post transfection.

R-type VDCC (Cav2.3) = molecular target: T1, R-type VDCC (Cav2.3) (Oryctolagus cuniculus, UniProt Q02343); assay: Patch-clamp analyses of BHK cells stably expressing Cav2.3 transfected with EFHC1 constructs; assay type: cell-based; details: whole cell patch-clamp, 24-48 hr after transfection
T1 construct: expressed in transfected cells; host or cells: BHK (BII-104-2) cells
Method: Electrophysiological analysis. A baby hamster kidney (BHK) cell line BHK (BII-104-2) stably transfected with the ociE (BII), α2/δ and β1a subunits, were cultured in DMEM medium containing 10% fetal bovine serum (FBS), 30 U/mL penicillin and 30 μg/mL streptomycin. To transiently express wild type or mutant EFHC1, BHK (BII-104-2) cells were transfected with the pEGFP-C2 plasmids (Clonetech) containing EGFP fused with cDNA for EFHC1 or its mutants using SuperFect Transfection Reagent (QIAGEN). For control experiments, EGFP was transiently expressed by transfecting BHK (BII-104-2) with the same amount of pEGFP without the EFHC1 inserts. Cells were trypsinized, diluted with the DMEM medium, and plated onto glass coverslips 18 hrs after transfection. Ca^2+ currents were recorded 24-48 hr after transfection from GFP-positive cells. Currents from BHK (BII-104-2) cells were recorded at room temperature (22-25° C.) using patch-clamp techniques of whole cell mode with an EPC-9 amplifier (HEKA, Germany). Patch pipettes were made from borosilicate glass capillaries (1.5 mm outer diameter and 0.87 mm inner diameter; Hilgenberg) by using a model P-97 Flaming-Brown micropipette puller (Sutter Instrument Co., CA). Pipette resistance ranged from 2 to 3 MΩ when filled with the pipette solutions described below. The series resistance was electronically compensated to >70% and both the leakage and the remaining capacitance were subtracted by −P/6 method. Currents were sampled at 100 kHz in activation kinetics, otherwise sampled at 50 kHz and filtered at 10 kHz. Calcium currents were recorded in an external solution that contained (in mM): 3 CaCl2, 148 tetraethylammonium chloride (TEA-C1), 10 glucose, and 10 HEPES, pH adjusted to 7.4 with Tris-OH. The pipette solution contained (in mM): 85 Cs-aspartate, 40 CsCl, 4 MgCl2, 5 EGTA, 2 ATP2Na, 5 HEPES, and 8 creatine-phosphate, pH adjusted to 7.4 with CsOH. To determine voltage-dependence of activation, amplitude of tail currents at −50 mV after 5 ms test pulse (−40 to 90 mV) was normalized to the maximal tail current amplitude. […]

PQ type VDCC (Cav2.1) = molecular target: T2, PQ type VDCC (Cav2.1) (Oryctolagus cuniculus, UniProt P27884); assay: Patch-clamp analyses of HEK cell line with P/Q type VDCCs and wild type EFHC1 or mutant constructs; assay type: cell-based; details: for Activation V0.5 (mV): half-maximal voltage of activation; for Activation V0.5 (mV) / Inactivation V0.5 (mV) / Activation k (mV) / Inactivation K (mV): mean ± SEM; for Inactivation V0.5 (mV): half-maximal voltage of inactivation; for Activation k (mV) / Inactivation K (mV): slope factor
T2 construct: expressed in transfected cells; host or cells: HEK cell line

[4] = tested on: mouse hippocampal primary culture neurons; details: 24, 36 and 48 hours after transfection; mutants compared to wild-type EFHC1
Method: Mouse hippocampal neurons primary culture. Hippocampal neurons were isolated from embryonic day 16 mice and plated at 1-2×10^5 cells per well in 24 well plate containing glass coverslips coated with poly-1-lysine and grown in serum-free NEUROBASAL™ media supplemented with B27, 0.5 mM L-glutamine (Invitrogen).
Transfection and immunostaining of mouse hippocampal neurons. […] Cultures were fixed with 4% paraformaldehyde in PBS 16 and 48 hours after transfection, permeabilized with 0.3% Triton X-100, blocked in 3% normal goat serum in PBS, and treated with mouse monoclonal anti-MAP-2 antibody (1:500; Sigma) and Alexa fluor 594 goat anti-mouse IgG antibody (1:1000; Molecular Probes).
TUNEL assay. […] Forty-eight hours after transfection, neuronal apoptosis was detected using DeadEndTM Fluorometric TUNEL System (Promega). Nuclei were visualized with Hoescht 33342 (Molecular Probes). These cells were also stained with anti-Myc antibody (1:200; Cell Signaling) and Alexa fluor 594 goat anti-rabbit IgG antibody (1:1000). All experiments were carried out in duplicate wells and at least repeated three times. Neuron cells were observed on a confocal microscope (OLYMPUS FLUOVIEW) following 48 hours post transfection.
Cell death analyses with EFHC1 mutants. […] Surviving cell numbers were scored by counting GFP fluorescent-positive cells that attached to dishes. At each counting, detached cells (dead cells) were carefully removed by changing culture medium. Morphologies of cells (cell shape, length and number of neurites, shrinkage, etc.) were not considered for the counting. Surviving cell numbers were scored at 24, 36, and 48 hours after transfection. Analyses were repeated twice by using two independently prepared expression construct DNAs. In total, neurons in seven wells of 24 well plates were counted for each transfection and time point. Experiments were performed in a blinded fashion.

T2 sequence (P27884 whole entry): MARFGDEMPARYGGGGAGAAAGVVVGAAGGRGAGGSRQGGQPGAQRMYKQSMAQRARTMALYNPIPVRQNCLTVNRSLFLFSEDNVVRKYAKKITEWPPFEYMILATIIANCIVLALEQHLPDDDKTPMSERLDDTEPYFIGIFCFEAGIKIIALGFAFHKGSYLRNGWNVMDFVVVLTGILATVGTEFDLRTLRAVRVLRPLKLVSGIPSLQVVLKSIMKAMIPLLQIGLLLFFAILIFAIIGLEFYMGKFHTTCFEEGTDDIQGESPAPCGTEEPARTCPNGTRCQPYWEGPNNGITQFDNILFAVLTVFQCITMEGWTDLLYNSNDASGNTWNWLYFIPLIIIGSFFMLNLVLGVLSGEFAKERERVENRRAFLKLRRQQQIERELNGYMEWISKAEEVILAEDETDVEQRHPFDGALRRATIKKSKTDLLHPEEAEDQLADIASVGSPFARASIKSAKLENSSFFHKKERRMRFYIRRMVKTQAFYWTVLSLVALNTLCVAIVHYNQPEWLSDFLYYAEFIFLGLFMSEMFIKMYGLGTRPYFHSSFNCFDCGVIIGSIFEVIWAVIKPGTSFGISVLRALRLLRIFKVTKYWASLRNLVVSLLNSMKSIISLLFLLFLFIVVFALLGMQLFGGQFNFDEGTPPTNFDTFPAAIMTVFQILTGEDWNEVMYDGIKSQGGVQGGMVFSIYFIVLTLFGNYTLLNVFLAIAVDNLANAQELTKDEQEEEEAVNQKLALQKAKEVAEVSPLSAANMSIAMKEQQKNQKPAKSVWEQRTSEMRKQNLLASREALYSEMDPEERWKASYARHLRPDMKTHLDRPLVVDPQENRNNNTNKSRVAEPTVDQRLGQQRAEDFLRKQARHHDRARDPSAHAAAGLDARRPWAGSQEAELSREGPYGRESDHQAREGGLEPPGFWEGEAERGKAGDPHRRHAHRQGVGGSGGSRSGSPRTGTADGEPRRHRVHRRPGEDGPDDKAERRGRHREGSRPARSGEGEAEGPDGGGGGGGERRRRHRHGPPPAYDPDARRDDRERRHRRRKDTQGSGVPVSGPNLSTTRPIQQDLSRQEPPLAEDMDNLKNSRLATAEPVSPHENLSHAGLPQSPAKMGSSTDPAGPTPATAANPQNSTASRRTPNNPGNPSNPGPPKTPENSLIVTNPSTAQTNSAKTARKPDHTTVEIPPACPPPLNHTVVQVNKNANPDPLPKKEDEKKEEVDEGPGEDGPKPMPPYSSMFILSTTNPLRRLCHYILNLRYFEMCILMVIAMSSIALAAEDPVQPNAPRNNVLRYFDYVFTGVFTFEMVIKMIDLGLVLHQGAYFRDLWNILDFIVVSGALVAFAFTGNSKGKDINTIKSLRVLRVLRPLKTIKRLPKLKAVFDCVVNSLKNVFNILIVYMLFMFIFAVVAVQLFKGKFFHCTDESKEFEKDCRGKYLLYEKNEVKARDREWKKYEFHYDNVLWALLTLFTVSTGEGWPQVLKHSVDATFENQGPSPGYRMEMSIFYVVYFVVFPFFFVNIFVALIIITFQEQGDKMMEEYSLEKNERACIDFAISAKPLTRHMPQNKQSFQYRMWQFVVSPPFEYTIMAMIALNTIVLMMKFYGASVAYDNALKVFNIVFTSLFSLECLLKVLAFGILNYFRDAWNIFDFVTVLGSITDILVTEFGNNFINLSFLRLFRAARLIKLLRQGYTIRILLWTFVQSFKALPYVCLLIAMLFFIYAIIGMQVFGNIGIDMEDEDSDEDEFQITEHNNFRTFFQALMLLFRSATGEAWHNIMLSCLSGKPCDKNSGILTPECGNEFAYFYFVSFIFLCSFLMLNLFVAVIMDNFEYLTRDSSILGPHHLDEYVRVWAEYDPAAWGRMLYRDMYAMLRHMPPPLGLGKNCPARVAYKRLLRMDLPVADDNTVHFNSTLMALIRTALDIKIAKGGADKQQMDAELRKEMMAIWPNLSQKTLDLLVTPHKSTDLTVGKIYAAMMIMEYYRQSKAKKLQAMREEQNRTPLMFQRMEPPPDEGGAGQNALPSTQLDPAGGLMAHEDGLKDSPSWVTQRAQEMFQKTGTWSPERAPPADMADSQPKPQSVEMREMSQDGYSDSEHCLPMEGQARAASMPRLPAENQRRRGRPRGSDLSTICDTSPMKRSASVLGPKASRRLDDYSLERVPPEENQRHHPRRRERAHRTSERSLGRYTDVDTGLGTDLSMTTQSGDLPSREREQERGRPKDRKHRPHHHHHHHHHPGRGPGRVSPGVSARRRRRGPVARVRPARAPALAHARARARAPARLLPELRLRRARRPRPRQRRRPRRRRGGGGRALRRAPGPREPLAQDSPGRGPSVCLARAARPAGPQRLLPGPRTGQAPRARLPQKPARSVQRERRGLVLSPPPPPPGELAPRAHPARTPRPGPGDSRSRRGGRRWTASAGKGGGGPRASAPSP
T2 sequence (P13806 27-1106 partner): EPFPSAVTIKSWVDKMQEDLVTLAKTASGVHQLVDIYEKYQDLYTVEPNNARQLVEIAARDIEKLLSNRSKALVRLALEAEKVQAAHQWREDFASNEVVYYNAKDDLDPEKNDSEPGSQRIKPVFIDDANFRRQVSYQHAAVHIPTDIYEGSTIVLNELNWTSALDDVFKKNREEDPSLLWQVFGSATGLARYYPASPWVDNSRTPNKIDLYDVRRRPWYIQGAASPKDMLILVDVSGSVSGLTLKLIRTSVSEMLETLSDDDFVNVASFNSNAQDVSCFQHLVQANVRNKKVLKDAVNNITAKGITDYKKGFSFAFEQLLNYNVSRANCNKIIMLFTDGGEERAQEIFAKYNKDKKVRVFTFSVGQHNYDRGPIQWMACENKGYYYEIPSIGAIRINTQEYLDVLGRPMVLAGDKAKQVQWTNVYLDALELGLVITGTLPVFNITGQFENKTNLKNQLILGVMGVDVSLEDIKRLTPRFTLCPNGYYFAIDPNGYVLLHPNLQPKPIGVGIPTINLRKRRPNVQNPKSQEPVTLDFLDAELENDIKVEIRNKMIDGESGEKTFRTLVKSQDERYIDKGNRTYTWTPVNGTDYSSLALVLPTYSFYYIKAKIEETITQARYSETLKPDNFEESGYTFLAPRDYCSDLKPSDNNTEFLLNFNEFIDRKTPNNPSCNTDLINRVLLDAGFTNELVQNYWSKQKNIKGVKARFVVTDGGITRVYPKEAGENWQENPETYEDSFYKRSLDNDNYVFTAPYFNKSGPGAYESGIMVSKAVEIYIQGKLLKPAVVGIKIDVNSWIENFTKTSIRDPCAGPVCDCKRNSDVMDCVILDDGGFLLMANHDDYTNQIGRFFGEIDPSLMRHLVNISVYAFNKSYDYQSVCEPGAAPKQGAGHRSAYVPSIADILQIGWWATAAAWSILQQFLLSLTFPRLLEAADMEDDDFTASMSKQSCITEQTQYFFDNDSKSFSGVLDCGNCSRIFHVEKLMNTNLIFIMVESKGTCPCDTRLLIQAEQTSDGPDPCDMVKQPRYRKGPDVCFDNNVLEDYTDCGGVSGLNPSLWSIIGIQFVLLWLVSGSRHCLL
T2 sequence (P19517 whole entry partner): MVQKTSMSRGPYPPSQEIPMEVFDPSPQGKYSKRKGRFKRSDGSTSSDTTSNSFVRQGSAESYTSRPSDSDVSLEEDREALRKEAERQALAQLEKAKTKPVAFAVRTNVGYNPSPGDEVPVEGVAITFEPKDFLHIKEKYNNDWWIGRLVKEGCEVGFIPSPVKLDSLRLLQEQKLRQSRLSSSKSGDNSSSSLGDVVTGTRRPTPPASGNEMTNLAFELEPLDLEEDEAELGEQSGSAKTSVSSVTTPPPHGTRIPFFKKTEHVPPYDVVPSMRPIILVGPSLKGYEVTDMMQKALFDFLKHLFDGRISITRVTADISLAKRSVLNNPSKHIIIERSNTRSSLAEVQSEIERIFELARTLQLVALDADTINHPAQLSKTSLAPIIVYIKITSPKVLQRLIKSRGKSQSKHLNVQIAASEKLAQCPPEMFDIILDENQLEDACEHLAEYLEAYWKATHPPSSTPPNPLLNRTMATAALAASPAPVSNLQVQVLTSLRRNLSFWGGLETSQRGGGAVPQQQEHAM

NC(=O)N1c2ccccc2C=Cc2ccccc21 [Carbamazepine]
absences in JME (JME seizures): make absence appear for the first time
effect on JME seizures (JME seizures): can make seizures worse; also recorded: have no effects on or aggravate JME seizures
effect on JME seizures (JME seizures; listed as carbamezapine): can make seizures worse
Seizure protecting plasma concentrations in humans [1]: 4 to 10 µg/mL

CCC1(C)CC(=O)NC1=O (centres unmarked) [Ethosuximide]
effect on JME seizures (JME seizures): no effects; also recorded: have no effects on or aggravate JME seizures
T type VDCC (T type VDCC; thalamic neurons): reduce
T type VDCC (T type VDCC; thalamic neurons, listed as ethozuximide): reduces
Seizure protecting plasma concentrations in humans [1]: 40 to 100 µg/mL

Nc1nnc(-c2cccc(Cl)c2Cl)c(N)n1 [Lamotrigine]
effect on JME seizures (JME seizures): seizure-suppressing; also recorded: suppress JME seizures; also recorded: seizure suppressing
L type HVDCC (L-type HVDCC): spares
N type HVDCC (N type HVDCC): inhibits
P type HVDCC (P type HVDCC): inhibits
Seizure protecting plasma concentrations in humans [1]: 3 to 14 µg/mL

CC[C@@H](C(N)=O)N1CCCC1=O [Levetiracetam]
effect on JME seizures (JME seizures): seizure-suppressing; also recorded: suppress JME seizures; also recorded: seizure suppressing
T type VDCC (T type VDCC): no effects
high voltage activated calcium currents ([2]; specific type not defined): depresses
Seizure protecting plasma concentrations in humans [1]: 5 to 45 µg/mL

CCC1(c2ccccc2)C(=O)NC(=O)NC1=O [Phenobarbital]
Seizure protecting plasma concentrations in humans [1]: 10 to 40 µg/mL

O=C1NC(=O)C(c2ccccc2)(c2ccccc2)N1 [Phenytoin]
absences in JME (JME seizures): make absence appear for the first time
effect on JME seizures (JME seizures): can make seizures worse; also recorded: have no effects on or aggravate JME seizures
Seizure protecting plasma concentrations in humans [1]: 10 to 20 µg/mL

CC1(C)O[C@@H]2[C@@H](CO[C@@]3(COS(N)(=O)=O)OC(C)(C)O[C@@H]23)O1 [Topiramate]
effect on JME seizures (JME seizures): seizure-suppressing; also recorded: suppress JME seizures; also recorded: seizure suppressing
peak of L-type HVDCC (L-type HVDCC; 10 μmol/L): decreased
Seizure protecting plasma concentrations in humans [1]: 5 to 10 µg/mL

CCCC(CCC)C(=O)O [Valproate]
Seizure protecting plasma concentrations in humans [1]: 40 to 150 µg/mL

NS(=O)(=O)Cc1noc2ccccc12 [Zonisamide]
effect on JME seizures (JME seizures): suppress JME seizures
effect on JME seizures (JME seizures; listed as zonizamide): seizure-suppressing; also recorded: seizure suppressing
T type LVDCC (T type VDCC; 500 μmol/L, cultured fetal rat cortical neurons): reduces
HVDCC ([2]; 500 μmol/L): does not alter
N-type Ca^2+ channel activity (N type HVDCC; 500 μmol/L): enhances
P-type calcium channel activity (P type HVDCC; 500 μmol/L): possibly reduces
Seizure protecting plasma concentrations in humans [1]: 15 to 40 µg/mL

CN1C(=O)OC(C)(C)C1=O [trimethadione]
effect on JME seizures (JME seizures): no effects in JME
T type VDCC (T type VDCC; thalamic neurons): reduce

SNX-482
apoptosis induced by EFHC1 overexpression ([3]; mouse hippocampal primary culture neurons): specifically suppressed
survival rates of EFHC1-positive neurons ([3]; surviving cells 48 hours after transfection, antagonist added 3 hrs post transfection): specifically increased

B1: F229L: EFHC1 protein with JME missense mutation F229L (Phe229Leu) (protein)
chain: MVSNPVHGLPFLPGTSFKDSTKTAFHRSQTLSYRNGYAIVRRPTVGIGGDRLQFNQLSQAELDELASKAPVLTYGQPKQAPPADFIPAHVAFDKKVLKFDAYFQEDVPMSTEEQYRIRQVNIYYYLEDDSMSVIEPVVENSGILQGKLIKRQRLAKNDRGDHYHWKDLNRGINITIYGKTFRVVDCDQFTQVFLESQGIELNPPEKMALDPYTELRKQPLRKYVTPSDLDQLKQFLTFDKQVLRFYAIWDDTDSMYGECRTYIIHYYLMDDTVEIREVHERNDGRDPFPLLMNRQRVPKVLVENAKNFPQCVLEISDQEVLEWYTAKDFIVGKSLTILGRTFFIYDCDPFTRRYYKEKFGITDLPRIDVSKREPPPVKQELPPYNGFGLVEDSAQNCFTLIPKAPKKDVIKMLVNDNKVLRYLAVLESPIPEDKDRRFVFSYFLATDMISIFEPPVRNSGIIGGKYLGRTKVVKPYSTVDNPVYYGPSDFFIGAVIEVFGHRFIILDTDEYVLKYMESNAAQYSPEALASIQNHVRKREAPAPEAESKQTEKDPGVQELEALIDTIQKQLKDHSCKDNIREAFQIYDKEASGYVDRDMFFKICESLNVPVDDSLVKELIRMCSHGEGKINYYNFVRAFSN
R-type Ca2+ current generated by Cav2.3 (R-type VDCC (Cav2.3)): significantly suppressed
Activation V0.5 (mV) (PQ type VDCC (Cav2.1)): 21.0 ± 3.4 mV
Inactivation V0.5 (mV) (PQ type VDCC (Cav2.1)): −13.7 ± 2.4 mV
inactivation speed of P/Q type VDCC (decelerating effect on calcium inactivation) (PQ type VDCC (Cav2.1); patch-clamp): abolished the decelerating effect
Activation k (mV) (PQ type VDCC (Cav2.1)): 9.25 ± 0.43 mV
Inactivation K (mV) (PQ type VDCC (Cav2.1)): 6.53 ± 0.41 mV
cell-death effect (GFP-positive surviving cell numbers) [4]: significantly reversed

B2: D253Y: EFHC1 protein with JME missense mutation D253Y (Asp253Tyr) (protein)
chain: B1 chain with L229F, D253Y
Ca2+ current density of P/Q-type VDCC (Cav2.1) (PQ type VDCC (Cav2.1); cells co-transfected with P/Q-type VDCC and EFHC1 constructs): prominently increased
sustained component of calcium currents (PQ type VDCC (Cav2.1); compared with vector-transfected control P/Q-type-expressing cells): reduced
Activation V0.5 (mV) (PQ type VDCC (Cav2.1)): 19.7 ± 2.0 mV
Inactivation V0.5 (mV) (PQ type VDCC (Cav2.1)): −10.9 ± 1.8 mV
Activation k (mV) (PQ type VDCC (Cav2.1)): 7.60 ± 0.51 mV
Inactivation K (mV) (PQ type VDCC (Cav2.1)): 6.08 ± 0.22 mV
cell-death effect (GFP-positive surviving cell numbers) [4]: significantly reversed
